Reference: patent US11267815B2, “Class of amino-substituted nitrogen-containing fused ring compounds, preparation method therefor, and use thereof” (SHANGHAI RINGENE BIOPHARMA CO., LTD., priority 2017, dated 2022)

Columns and labels:
FGFR1 = FGFR1 (Homo sapiens (Human), UniProt P11362); assay: Inhibitory activity on kinase FGFR1 (Caliper mobility shift); format: biochemical; conditions: read-out: FGFR1 IC50
Protocol: (§1) (1). Preparation of 1×Kinase buffer; (2) Preparation of the gradient concentrations of the compounds: the concentration of the compounds to be tested started from 10 μM, which was 3-fold diluted to prepare 10 dilutions, and then tested in duplicated wells. The compounds were 100-fold serially diluted into 10 dilutions with different final concentrations in 96-well plates, each of which was further diluted with 1×Kinase buffer to prepare an intermediate dilution having a concentration of 5 times the final concentration; (3) adding 5 μL of each of the prepared compound solution into the compound wells of 384-well plates, and each concentration set single well; adding 5 μL of 5% DMSO into negative control wells and positive control wells respectively; (4) preparing a kinase solution having a concentration of 2.5 times the final concentration with 1×kinase buffer; (5) adding 10 μL of kinase solution at a concentration of 2.5 times the final concentration into the compound wells and the positive control wells respectively; and adding 10 μL of 1×Kinase buffer into the negative control wells; (6) centrifuging at 1000 rpm for 30 seconds, and incubating at room temperature for 10 minutes after shaking and mixing evenly; (7) preparing a mixed solution of ATP and Kinase substrate 22 having a concentration of 2.5 times the final concentration with 1×Kinase Buffer; (8) adding 10 μL of the mixed solution of ATP and substrate at a concentration of 2.5 times the final concentration to initiate the reaction; (9) Centrifuging the 384-well plates at 1000 rpm for 30 seconds, and incubating at 28° C. for corresponding time respectively after shaking and mixing; (10) adding 30 μL of stop detection solution to stop the kinase reaction, centrifuging at 1000 rpm for 30 seconds, and shaking and mixing the mixture evenly; (11) reading the conversion rate by Caliper Ezreader II. The dose-effect curve was fitted by the log (inhibitor) vs. response-variable slope of GraphPad Prism 5 with the log value of concentration as the X axis and the percentage inhibition rate as the Y axis, then the IC50 value of each compound on the enzyme activity was obtained.

FGFR4 = FGFR4 (Homo sapiens (Human), UniProt P22455); assay: Inhibitory activity on kinase FGFR4 (Caliper mobility shift); format: biochemical; conditions: read-out: FGFR4 IC50
Protocol: as §1

Hep3B cells = assay: Hep3B cell proliferation (CellTiter-Glo, 72 hours); format: cell-based; conditions: read-out: Hep3B IC50
Protocol: 1. Test method: inoculating Hep3B cells (ATCC) in logarithmic growth phase at an appropriate density in a 96-well culture plate, with 100 μL per well. After overnight culture, different concentrations of compounds were added to stay for 72 hours, and menstruum control group (negative control) was set, and the incubation was performed under the condition of 5% CO2 at 37° C. Adding 10 mM compound stock solution to the cells, after the cells were incubated with the compounds for 72 hours, the effects of the compounds on cell proliferation were determined by CellTiter-Glo (Promega) method. 30 μL CTG reagent was added to each well and the resulting mixtures were placed in a 37° C. incubator for 2-4 hours. Then the plate was read by a full-wavelength microplate enzyme reader Envision at a […].
The inhibition rates (%) of the compounds on tumor cell growth were calculated by the following formula: inhibition rate (%)=(OD negative control well−OD administration well)/OD negative control well×100%. IC50 values were obtained by four parameters regression using Graphpad Prism 5 software.

[1] = tested on: EGFR, VEGFR, PDGFR, FGFR, RET, MET, Src, Lyn, Syk, MEK, CDK, RA, ROS; assay: Inhibitory activities on different kinases (selectivity); format: biochemical; conditions: versus different kinases
Protocol: The inhibitory activities of the compounds of the present disclosure on different kinases such as EGFR, VEGFR, PDGFR, FGFR, RET, MET, Src, Lyn, Syk, MEK, CDK, RA, ROS, etc., were also determined.

[2] = tested on: various tumor cells (HuH-7, SNU-16, KG1, UM-UC-14, RT-112 etc.); assay: Proliferation inhibitory activity on various tumor cells (SRB or CCK8); format: cell-based; conditions: SRB or CCK8 method; read-out: proliferation inhibitory activities on various tumor cells
[3] = ADME tests: liver microsome metabolic stability and direct inhibition test; format: in vitro ADME; conditions: metabolic stability, direct inhibition test
Protocol: (1) Metabolic stability test: 150 μL system of liver microsome (final concentration 0.5 mg/mL) was used for metabolic stability incubation, the system contained NADPH (final concentration 1 mM), 1 μM test compound and positive control Midazolam or negative control Atenolol, then the reaction was terminated with Tinidazole-containing acetonitrile at 0 min, 5 min, 10 min and 30 min respectively, and the mixtures were vortexed for 10 minutes and centrifuged for 10 minutes at 15000 rmp, 50 μL of the supernatants were added into 96-well plate for injection. The metabolic stability of the compounds was calculated by measuring the relative reduction of the original drug.
(2) Direct inhibition test (DI test): Direct inhibition incubation was carried out with 100 μL system of human liver microsome (final concentration 0.2 mg/mL), the system containing NADPH (final concentration 1 mM), 10 μM compound, positive inhibitor cocktail (Ketoconazole 10 μM, Quinidine 10 μM, Sulfaphenazolum 100 μM, α-Naphthoflavone 10 μM, Tranylcypromine 1000 μM), negative control (BPS containing 0.1% DMSO) and mixed probe substrates (Midazolam 10 μM, Testosterone 100 μM, Dextromethorphan […], Diclofenac 20 μM, Phenacetin 100 μM, Mephenytoin 100 μM) was incubated for 20 minutes and then the reaction was terminated. The relative activity of enzymes was calculated by measuring the relative production of metabolites.

[4] = Pharmacokinetics in rats or mice after intragastric and intravenous administration; format: in vivo, SD rats or BALB/c mice; conditions: iv 3 mg/kg, intragastric 10 mg/kg
Protocol: (3) LC/MS/MS method was used to measure the drug concentration in plasma at different time points after the embodiment compounds were administered to the rats or mice by intragastric administration and intravenous injection respectively, so as to study the pharmacokinetic behavior of the compounds of the present disclosure in rats or mice and evaluate the pharmacokinetic characteristics thereof. […]

xenograft tumors = assay: Xenograft tumor growth in nude mice; format: in vivo; conditions: oral, daily for three weeks, lower dose (even less than 20 mg/kg)
Protocol: 1. The tumor tissue in vigorous growth period was cut into about 1.5 mm^3, and subcutaneously inoculated into the right armpit of nude mice under sterile condition. The diameter of the subcutaneous transplanted tumors in nude mice was measured with vernier caliper, and the animals were randomly divided into groups when the average volume of the tumor reached about 130 mm^3. The embodiment compounds (prepared to the desired concentration with water for injection containing 1% Tween 80 for later use) were orally administered at a predetermined dose every day for three weeks, while a same amount of menstruum was administered in the menstruum control group. During the whole experiment, the diameter of the xenograft tumor was measured twice a week and the weight of the mice was weighed at the same time. The tumor volume (TV) was calculated by the formula: TV=½×a×b^2, where a and b represent length and width respectively. According to the measured results, the relative tumor volume (RTV) was calculated by the formula: RTV=Vt/V0, where V0 was the tumor volume measured when the mice were divided into cages for administration (i.e., d0) and Vt was the tumor volume at each measurement. […]

Sequence of FGFR4 (P22455 22-802): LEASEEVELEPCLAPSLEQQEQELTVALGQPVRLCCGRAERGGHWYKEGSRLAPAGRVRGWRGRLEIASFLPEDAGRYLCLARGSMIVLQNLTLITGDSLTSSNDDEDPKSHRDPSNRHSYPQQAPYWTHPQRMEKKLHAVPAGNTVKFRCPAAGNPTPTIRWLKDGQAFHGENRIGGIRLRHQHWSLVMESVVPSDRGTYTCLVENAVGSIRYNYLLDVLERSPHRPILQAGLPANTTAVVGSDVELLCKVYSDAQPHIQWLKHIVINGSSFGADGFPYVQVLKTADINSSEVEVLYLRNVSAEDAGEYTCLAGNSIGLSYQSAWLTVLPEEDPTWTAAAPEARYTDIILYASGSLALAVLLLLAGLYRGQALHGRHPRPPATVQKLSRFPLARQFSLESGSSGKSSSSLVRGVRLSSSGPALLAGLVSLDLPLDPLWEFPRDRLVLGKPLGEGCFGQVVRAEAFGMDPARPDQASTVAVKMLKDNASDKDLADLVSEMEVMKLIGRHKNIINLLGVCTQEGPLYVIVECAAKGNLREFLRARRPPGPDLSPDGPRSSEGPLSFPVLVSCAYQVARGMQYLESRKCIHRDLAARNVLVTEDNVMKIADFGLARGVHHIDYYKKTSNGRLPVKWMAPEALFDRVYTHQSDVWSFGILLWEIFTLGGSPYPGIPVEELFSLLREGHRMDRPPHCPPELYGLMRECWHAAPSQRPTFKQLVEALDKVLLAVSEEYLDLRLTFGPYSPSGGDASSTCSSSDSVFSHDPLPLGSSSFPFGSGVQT
Sequence of FGFR1 (P11362 22-822): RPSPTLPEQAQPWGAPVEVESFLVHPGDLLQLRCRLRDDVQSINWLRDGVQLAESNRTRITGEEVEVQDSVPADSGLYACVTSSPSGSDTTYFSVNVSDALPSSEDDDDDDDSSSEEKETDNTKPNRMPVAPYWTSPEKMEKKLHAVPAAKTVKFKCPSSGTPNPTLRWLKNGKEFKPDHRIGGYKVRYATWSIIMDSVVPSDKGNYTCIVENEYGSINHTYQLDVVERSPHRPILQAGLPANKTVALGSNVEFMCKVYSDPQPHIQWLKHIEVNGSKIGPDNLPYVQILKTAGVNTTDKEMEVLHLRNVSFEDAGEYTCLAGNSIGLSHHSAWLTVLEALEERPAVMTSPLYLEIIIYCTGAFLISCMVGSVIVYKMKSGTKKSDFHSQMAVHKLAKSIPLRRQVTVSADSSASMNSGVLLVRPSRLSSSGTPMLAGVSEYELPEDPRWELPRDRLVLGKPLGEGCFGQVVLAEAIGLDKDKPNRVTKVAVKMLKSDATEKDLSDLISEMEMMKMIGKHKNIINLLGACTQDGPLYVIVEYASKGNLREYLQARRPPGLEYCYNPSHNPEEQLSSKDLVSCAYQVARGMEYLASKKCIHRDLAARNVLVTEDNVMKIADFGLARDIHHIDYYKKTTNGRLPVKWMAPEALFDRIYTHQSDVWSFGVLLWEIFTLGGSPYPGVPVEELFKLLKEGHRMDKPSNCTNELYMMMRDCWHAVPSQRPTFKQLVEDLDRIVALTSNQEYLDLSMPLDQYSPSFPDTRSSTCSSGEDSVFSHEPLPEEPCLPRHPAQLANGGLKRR

With `C=CC(=O)Nc1ccc(-c2cn3c(n2)c(-c2c(Cl)c(OC)cc(OC)c2Cl)cc2cnc(NC)nc23)cc1` [Embodiment 17, N-(4-(6-(2,6-dichloro-3,5-phenyldimethoxyphenyl)-2-(methylamine)imidazo[1′,2′:1,6]pyrido[2,3-d]pyrimidin-8-yl)phenyl)acrylamide] the IC50 (FGFR1) was less than 20 nM, the IC50 (FGFR4) was greater than 200 nM and the IC50 (Hep3B cells) was 20 to 200 nM. For the same compound, the kinase selectivity [1] was “greater than 100 times”, the IC50 [2] was less than 100 nM and the ADME properties [3] was “better ADME properties”. For the same compound, the “absorption and metabolism properties in rats and mice” value [4] was “good absorption and metabolism properties in rats and mice” and the anti-tumor rate (xenograft tumors) was “more than 80%”.
